Results reported in patent US20240122180A1, “FUNGICIDAL HALOMETHYL KETONES AND HYDRATES AND THEIR MIXTURES” (FMC Corporation, priority 2020, published 2024).

Test system: Phakopsora pachyrhizi (the causal agent of Asian soybean rust)
Assay: Test F: Compound 32 or 64 alone and in mixtures on soybean seedlings, observed (Obsd) and Colby expected (Exp) disease control
Type: in vivo
Details: for pest or weed control at 20.511 ppm: trifloxystrobin 20.511 ppm alone; for pest or weed control at 35.31 ppm: trifloxystrobin 35.310 ppm alone; for pest or weed control at 138.129 ppm: chlorothalonil 138.129 ppm alone; for pest or weed control at 222.081 ppm: chlorothalonil 222.081 ppm alone; for pest or weed control at 10.165 ppm: prothioconazole 10.165 ppm alone; for pest or weed control at 16.339 ppm: prothioconazole 16.339 ppm alone; for pest or weed control at 78.393 ppm: fenpropidin 78.393 ppm alone; for pest or weed control at 161.74 ppm: fenpropidin 161.740 ppm alone; for pest or weed control at 486.921 ppm: tebuconazole 486.921 ppm alone; for pest or weed control at 841.166 ppm: tebuconazole 841.166 ppm alone; for pest or weed control at 45.86 ppm: pyraclostrobin 45.860 ppm alone; for pest or weed control at 137.503 ppm: pyraclostrobin 137.503 ppm alone; for pest or weed control at 242.823 ppm: fenpropimorph 242.823 ppm alone; for pest or weed control at 458.587 ppm: fenpropimorph 458.587 ppm alone; for pest or weed control at 46.795 ppm: epoxiconazole 46.795 ppm alone; for pest or weed control at 89.631 ppm: epoxiconazole 89.631 ppm alone; for pest or weed control at 544.265 ppm: flutriafol 544.265 ppm alone; for pest or weed control at 1124.02 ppm: flutriafol 1124.021 ppm alone; for pest or weed control at 29.673 ppm: metominostrobin 29.673 ppm alone; for pest or weed control at 86.003 ppm: metominostrobin 86.003 ppm alone
Text: The general protocol for preparing test compositions for Test F was as follows: Compound 32, Compound 64, azoxystrobin, benzovindiflupyr, bixafen, chlorothalonil, cyproconazole, epoxiconazole, fenpropidin, fenpropimorph, fluindapyr, flutriafol, fluxapyroxad, metominostrobin, picoxystrobin, prothioconazole, pydiflumetofen, pyraclostrobin, tebuconazole and trifloxystrobin were obtained as unformulated, technical-grade materials. Copper hydroxide and mancozeb was obtained as a formulated product marketed under the trademarks KOCIDE 3000 and MANZATE, respectively. Unformulated materials were first dissolved in acetone and then suspended at the desired concentration (in ppm) in acetone and purified water (50/50 mix by volume) containing 250 ppm of the surfactant Trem® 014 (polyhydric alcohol esters). Formulated materials were dispersed in sufficient water to give the desired concentration, and neither organic solvent nor surfactant was added to the suspension. The resulting test mixtures were then used in Test F. The tests were run on four individual plants and the results reported as the mean average of the four plants.
The presence of a synergistic effect between two active ingredients was established with the aid of the Colby equation (see Colby, S. R. “Calculating Synergistic and Antagonistic Responses of Herbicide Combinations”, Weeds, (1967), 15, 20-22):
Using the method of Colby, the presence of a synergistic interaction between two active ingredients is established by first calculating the predicted activity, p, of the mixture based on activities of the two components applied alone. If p is lower than the experimentally established effect, synergism has occurred. In the equation above, A is the fungicidal activity in percentage control of one component applied alone at rate x. The B term is the fungicidal activity in percentage control of the second component applied at rate y. The equation estimates p, the expected fungicidal activity of the mixture of A at rate x with B at rate y if their effects are strictly additive and no interaction has occurred.
The test mixture was sprayed to the point of run-off on soybean seedlings. The following day the seedlings were inoculated with a spore suspension of Phakopsora pachyrhizi (the causal agent of Asian soybean rust) and incubated in a saturated atmosphere at 22° C. for 24 h and then moved to a growth chamber at 22° C. for 8 days, after which time visual disease ratings were made.
Results for Test F are given in Tables B-1 through I-1 for Compound 32 and Tables B-2 through I-2 for Compound 64. Each table corresponds to a set of evaluations performed together at the same time. In each table, a rating of 100 indicates 100% disease control and a rating of 0 indicates no disease control (relative to the controls). Columns labeled “Obsd” indicate the average of results observed from test run on four individual plants. Columns labeled “Exp” indicate the expected value for each treatment mixture using the Colby equation.

[1] = Phakopsora pachyrhizi, Table E-2
[2] = Phakopsora pachyrhizi, Table G-1
[3] = Phakopsora pachyrhizi, Table G-2
[4] = Phakopsora pachyrhizi, Table I-1
[5] = Phakopsora pachyrhizi, Table I-2
[6] = Phakopsora pachyrhizi, Table D-1
[7] = Phakopsora pachyrhizi, Table D-2
[8] = Phakopsora pachyrhizi, Table H-1
[9] = Phakopsora pachyrhizi, Table H-2
[10] = Phakopsora pachyrhizi, Table F-1
[11] = Phakopsora pachyrhizi, Table F-2

`CON(C(=O)c1cn(C)nc1C(F)F)C(C)Cc1c(Cl)cc(Cl)cc1Cl` (centres unmarked) [pydiflumetofen] gave an Obsd disease control (pydiflumetofen 41.364 ppm alone, Table H-1) of 49%, an Obsd disease control (pydiflumetofen 41.364 ppm alone, Table H-2) of 49% and an Obsd disease control (pydiflumetofen 70.950 ppm alone, Table F-1) of 0%. It also gave an Obsd disease control (pydiflumetofen 70.950 ppm alone, Table F-2) of 0%, an Obsd disease control (pydiflumetofen 128.793 ppm alone, Table H-1) of 36% and an Obsd disease control (pydiflumetofen 128.793 ppm alone, Table H-2) of 36%. The Obsd disease control (pydiflumetofen 135.850 ppm alone, Table F-1) was 73% and the Obsd disease control (pydiflumetofen 135.850 ppm alone, Table F-2) was 73%.

Compound `CON=C(C(=O)OC)c1ccccc1CON=C(C)c1cccc(C(F)(F)F)c1` [trifloxystrobin] has a pest or weed control at 20.511 ppm [1] of 69%, a pest or weed control at 35.31 ppm [1] of 86% and a pest or weed control at 20.511 ppm (Table E-1) of 69%. It also gave a pest or weed control at 35.31 ppm (Table E-1) of 86%.

For `N#Cc1c(Cl)c(Cl)c(Cl)c(C#N)c1Cl` [chlorothalonil], the pest or weed control at 138.129 ppm [2] was 59%, the pest or weed control at 138.129 ppm [3] was 59% and the pest or weed control at 222.081 ppm [2] was 85%. For the same compound, the pest or weed control at 222.081 ppm [3] was 85%.

In the case of `CO/C=C(/C(=O)OC)c1ccccc1Oc1cc(Oc2ccccc2C#N)ncn1` [azoxystrobin], the Obsd disease control (azoxystrobin 95.873 ppm alone, Table E-1) was 70%, the Obsd disease control (azoxystrobin 95.873 ppm alone, Table E-2) was 70% and the Obsd disease control (azoxystrobin 169.226 ppm alone, Table E-1) was 88%. It also gave an Obsd disease control (azoxystrobin 169.226 ppm alone, Table E-2) of 88%.

In the case of `CC1CC(C)(C)c2c(F)ccc(NC(=O)c3cn(C)nc3C(F)F)c21` (centres unmarked) [fluindapyr], the Obsd disease control (fluindapyr 8.820 ppm alone, Table C-1) was 61%, the Obsd disease control (fluindapyr 8.820 ppm alone, Table C-2) was 61% and the Obsd disease control (fluindapyr 15.230 ppm alone, Table C-1) was 79%. For the same compound, the Obsd disease control (fluindapyr 15.230 ppm alone, Table C-2) was 79%.

`OC(Cc1ccccc1Cl)(Cn1nc[nH]c1=S)C1(Cl)CC1` (centres unmarked) [prothioconazole] gave a pest or weed control at 10.165 ppm [2] of 7%, a pest or weed control at 10.165 ppm [3] of 7% and a pest or weed control at 16.339 ppm [2] of 65%. For the same compound, the pest or weed control at 16.339 ppm [3] was 65%.

`CC(Cc1ccc(C(C)(C)C)cc1)CN1CCCCC1` (centres unmarked) [fenpropidin] gave a pest or weed control at 78.393 ppm [4] of 45%, a pest or weed control at 78.393 ppm [5] of 45% and a pest or weed control at 161.74 ppm [4] of 68%. For the same compound, the pest or weed control at 161.74 ppm [5] was 68%.

`Cn1cc(C(=O)Nc2ccccc2-c2cc(F)c(F)c(F)c2)c(C(F)F)n1` [fluxapyroxad] gave an Obsd disease control (fluxapyroxad 2.757 ppm alone, Table C-1) of 19%, an Obsd disease control (fluxapyroxad 2.757 ppm alone, Table C-2) of 19% and an Obsd disease control (fluxapyroxad 4.748 ppm alone, Table C-1) of 52%. It also gave an Obsd disease control (fluxapyroxad 4.748 ppm alone, Table C-2) of 52%.

In the case of `CC(C)(C)C(O)(CCc1ccc(Cl)cc1)Cn1cncn1` (centres unmarked) [tebuconazole], the pest or weed control at 486.921 ppm [6] was 30%, the pest or weed control at 486.921 ppm [7] was 30% and the pest or weed control at 841.166 ppm [6] was 55%. For the same compound, the pest or weed control at 841.166 ppm [7] was 55%.

For `COC(=O)N(OC)c1ccccc1COc1ccn(-c2ccc(Cl)cc2)n1` [pyraclostrobin], the pest or weed control at 45.86 ppm [8] was 35%, the pest or weed control at 45.86 ppm [9] was 35% and the pest or weed control at 137.503 ppm [8] was 45%. For the same compound, the pest or weed control at 137.503 ppm [9] was 45%.

For `CC(Cc1ccc(C(C)(C)C)cc1)CN1C[C@@H](C)O[C@@H](C)C1` (some centres unmarked) [fenpropimorph], the pest or weed control at 242.823 ppm [6] was 33%, the pest or weed control at 242.823 ppm [7] was 33% and the pest or weed control at 458.587 ppm [6] was 44%. The pest or weed control at 458.587 ppm [7] was 44%.

In the case of `CO/C=C(/C(=O)OC)c1ccccc1COc1cccc(C(F)(F)F)n1` [picoxystrobin], the Obsd disease control (picoxystrobin 20.596 ppm alone, Table B-1) was 73%, the Obsd disease control (picoxystrobin 20.596 ppm alone, Table B-2) was 73% and the Obsd disease control (picoxystrobin 33.865 ppm alone, Table B-1) was 75%. It also gave an Obsd disease control (picoxystrobin 33.865 ppm alone, Table B-2) of 75%.

`Cn1cc(C(=O)Nc2cccc3c2[C@@H]2CC[C@H]3C2=C(Cl)Cl)c(C(F)F)n1` (racemic) [benzovindiflupyr] was tested, and the Obsd disease control (benzovindiflupyr 0.606 ppm alone, Table G-1) was 67%, the Obsd disease control (benzovindiflupyr 0.606 ppm alone, Table G-2) was 67% and the Obsd disease control (benzovindiflupyr 0.980 ppm alone, Table G-1) was 67%. It also gave an Obsd disease control (benzovindiflupyr 0.980 ppm alone, Table G-2) of 67%.

`Fc1ccc([C@]2(Cn3cncn3)O[C@H]2c2ccccc2Cl)cc1` (racemic) [epoxiconazole] was tested, and the pest or weed control at 46.795 ppm [10] was 23%, the pest or weed control at 46.795 ppm [11] was 23% and the pest or weed control at 89.631 ppm [10] was 70%. For the same compound, the pest or weed control at 89.631 ppm [11] was 70%.

Work on `OC(Cn1cncn1)(c1ccc(F)cc1)c1ccccc1F` (centres unmarked) [flutriafol] yielded a pest or weed control at 544.265 ppm [4] of 13%, a pest or weed control at 544.265 ppm [5] of 13% and a pest or weed control at 1124.02 ppm [4] of 52%. It also gave a pest or weed control at 1124.02 ppm [5] of 52%.

`CNC(=O)/C(=N/OC)c1ccccc1Oc1ccccc1` [metominostrobin] showed a pest or weed control at 29.673 ppm [8] of 13%, a pest or weed control at 29.673 ppm [9] of 13% and a pest or weed control at 86.003 ppm [8] of 37%. For the same compound, the pest or weed control at 86.003 ppm [9] was 37%.
